Measurements as given in the NIST ThermoML archive (doi:10.1021/je100707s).
Values joined by “and” are separate entries in the source; they are usually repeats but may differ in a detail not shown here. Equal values may be shown once.

Conditions: Gas, Bellows volumetry

F/C=C/C(F)(F)F [trans-1,3,3,3-tetrafluoropropene]
mass density
Conditions | 350 K | 360 K
806 kPa | – | 34.26 kg/m3
822 kPa | – | 35.02 kg/m3
838 kPa | – | 35.83 kg/m3
858 kPa | – | 36.81 kg/m3
872 kPa | – | 37.5 kg/m3
893 kPa | – | 38.54 kg/m3
914 kPa | – | 39.59 kg/m3
934 kPa | – | 40.62 kg/m3
957 kPa | – | 41.79 kg/m3
980 kPa | – | 42.97 kg/m3
996 kPa | – | 43.76 kg/m3
1013 kPa | – | 44.41 kg/m3
1032 kPa | – | 45.38 kg/m3
1050 kPa | 48.68 kg/m3 | –
1053 kPa | – | 46.47 kg/m3
1073 kPa | 49.96 kg/m3 | –
1076 kPa | – | 47.64 kg/m3
1081 kPa | 50.42 kg/m3 | –
1093 kPa | – | 48.62 kg/m3
1097 kPa | 51.34 kg/m3 | –
1118 kPa | 52.57 kg/m3 | –
1123 kPa | – | 50.21 kg/m3
1142 kPa | – | 51.25 kg/m3
1146 kPa | 54.28 kg/m3 | –
1164 kPa | – | 52.52 kg/m3
1166 kPa | 55.47 kg/m3 | –
1184 kPa | 56.54 kg/m3 | –
1190 kPa | – | 53.97 kg/m3
1212 kPa | 58.14 kg/m3 | –
1217 kPa | – | 55.45 kg/m3
1228 kPa | 59.18 kg/m3 | –
1246 kPa | – | 56.97 kg/m3
1249 kPa | – | 57.15 kg/m3
1253 kPa | 60.74 kg/m3 | –
1263 kPa | – | 57.94 kg/m3
1281 kPa | 62.46 kg/m3 | –
1285 kPa | – | 59.28 kg/m3
1299 kPa | 63.7 kg/m3 | –
1310 kPa | – | 60.71 kg/m3
1325 kPa | 65.31 kg/m3 | –
1335 kPa | – | 62.17 kg/m3
1352 kPa | 67.13 kg/m3 | –
1359 kPa | – | 63.66 kg/m3
1374 kPa | 68.68 kg/m3 | –
1376 kPa | 68.87 kg/m3 | –
1386 kPa | – | 65.23 kg/m3
1400 kPa | 70.45 kg/m3 | –
1403 kPa | 70.69 kg/m3 | –
1414 kPa | – | 66.98 kg/m3
1422 kPa | 72.01 kg/m3 | –
1434 kPa | 72.82 kg/m3 | –
1438 kPa | – | 68.45 kg/m3
1441 kPa | – | 68.77 kg/m3
1451 kPa | 74.02 kg/m3 | –
1460 kPa | 74.47 kg/m3 | –
1466 kPa | – | 70.29 kg/m3 and 70.3 kg/m3
1474 kPa | 75.65 kg/m3 | –
1493 kPa | – | 72.04 kg/m3
1499 kPa | 77.45 kg/m3 | –
1502 kPa | – | 72.6 kg/m3
1523 kPa | – | 73.94 kg/m3
1526 kPa | 79.54 kg/m3 | –
1535 kPa | – | 74.54 kg/m3
1545 kPa | – | 75.43 kg/m3
1552 kPa | 81.57 kg/m3 | –
1580 kPa | 83.73 kg/m3 | 77.76 kg/m3
1607 kPa | – | 79.57 kg/m3
1611 kPa | 86.28 kg/m3 | –
1634 kPa | – | 81.53 kg/m3
1645 kPa | 88.62 kg/m3 | –
1665 kPa | – | 83.71 kg/m3
1667 kPa | 90.44 kg/m3 | –
1692 kPa | 92.58 kg/m3 | –
1695 kPa | – | 85.89 kg/m3
1722 kPa | 95.16 kg/m3 | –
1725 kPa | – | 87.95 kg/m3
1737 kPa | – | 88.54 kg/m3
1748 kPa | 97.5 kg/m3 | –
1760 kPa | – | 90.28 kg/m3
1773 kPa | 99.83 kg/m3 | –
1787 kPa | – | 92.36 kg/m3
1798 kPa | 102.24 kg/m3 | –
1815 kPa | – | 94.55 kg/m3
1822 kPa | 104.65 kg/m3 | –
1850 kPa | 107.61 kg/m3 | 97.28 kg/m3
1869 kPa | 109.92 kg/m3 | –
1886 kPa | – | 100.24 kg/m3
1926 kPa | – | 103.58 kg/m3
1936 kPa | – | 104.54 kg/m3
1964 kPa | – | 107.1 kg/m3
1999 kPa | – | 110.25 kg/m3
2157 kPa | – | 125.99 kg/m3
2180 kPa | – | 128.5 kg/m3
2212 kPa | – | 132.17 kg/m3
2224 kPa | – | 133.7 kg/m3
2247 kPa | – | 136.47 kg/m3
2279 kPa | – | 140.52 kg/m3
2287 kPa | – | 141.76 kg/m3
2300 kPa | – | 143.52 kg/m3
